Measurements as given in patent publication US20260256753A1, “USE OF AN OREXIN 2 RECEPTOR AGONIST FOR IMPROVING RESPIRATORY FUNCTION DURING SLEEP” (TAKEDA PHARMACEUTICAL COMPANY LIMITED, priority 2023, published 2026).

Legend:
Assay type in all cases: cell-based
[1] = tested on: neurons in the pre-Bötzinger complex; assay: Electrophysiologic recording of neurons in the pre-Bötzinger complex in rat medullary slices; conditions: whole cell patch clamp, versus vehicle (0.1% DMSO) control, FIG. 1
From the text: (§1) Neonatal rats (postnatal day 1-10) were decapitated and the neuraxis was isolated in a chamber filled with oxygenated artificial cerebrospinal fluid solution (ACSF, in mM: NaCl 125, KCl 2.5, MgCl2 1, CaCl2 2, NaHCO3 25, NaH2PO4 1.25, glucose 25, pH 7.4). The cerebellum was removed, and the brainstem was mounted in the vibratome (VT 1000S; Leica, Milan, Italy) chamber filled with oxygenated gluconate cutting solution (in mM: Kgluconate 130, KCl 15, EGTA 0.2, HEPES 20, glucose 25, kynurenic acid 2, pH 7.4). Transverse medullary slices containing the pre-Bötzinger complex and hypoglossal nucleus were cut (400-600 μm thick). The slices were transferred at room temperature for 1 min in an oxygenated mannitol cutting solution (in mM: D-mannitol 225, glucose 25, KCl 2.5, NaH2PO4 1.25, NaHCO3 26, CaCl2 0.8, MgCl2 8, kynurenic acid 2, pH 7.4). Slices were then transferred in ACSF solution at 30° C. for 30 min and at room temperature for 30 min. At least 30 min prior to the start of recording, each slice was transferred in the recording solution in which the concentration of K+ was raised to 9 mM and that of Mg2+ was decreased to 0.5 mM to ensure the production of long-term and stable rhythm. […] Signals were acquired using Clampex 10.6 software (Axon, Molecular Devices, CA, USA) at a sampling rate of 10-20 kHz and filtered at 2-10 kHz using an 8-pole Bessel filter built within the software and analyzed using Clampfit 10.6 software (pClamp 10.6; Axon, Molecular Devices). […] Bursts were then automatically detected, and burst frequency was measured.
(§2) To evaluate the effects of vehicle (0.1% DMSO) on neuronal activities, after 5 min of stabilization, the neuronal activities under basal condition was recorded for 2-12 min, followed by recording in the presence of vehicle (0.1% DMSO) for 30 min. […]

phrenic motoneurons = assay: Electrophysiologic recording of phrenic motoneurons in rat isolated brainstem-spinal cord preparations; conditions: C3-5 ventral root, versus vehicle control, FIG. 2
Protocol: Neonatal (postnatal day 1-4) rats were decapitated, and the brainstem-spinal cord was dissected in a bath containing ACSF. The cerebellum and pons were ablated. At least 30 min prior to the start of recording, the tissue was transferred in the recording solution in which the concentration of K+ was raised to 5 mM and that of Mg2+ was decreased to 0.5 mM to ensure production of long-term and stable rhythm (modified ACSF, in mM: NaCl 125, MgCl2 0.5, KCl 5, CaCl2 1, NaHCO3 25, NaH2PO4 1.25, glucose 30, pH 7.4). The tissues were glued on coverslips and transferred to a recording chamber and continuously perfused at 27±2° C. with mACSF at a flow rate of 2.3±0.2 mL/min. Activity of phrenic motoneurons was measured in electrophysiological recordings from C3-5 ventral root, outputs of phrenic motoneurons (J. J. Greer, J. C. Smith, J. L. Feldman, Respiratory and locomotor patterns generated in the fetal rat brain stem-spinal cord in vitro, J Neurophysiol 67 (4) (1992) 996-9; J. C. Smith, J. J. Greer, G. S. Liu, J. L. Feldman, Neural mechanisms generating respiratory pattern in mammalian brain stem-spinal cord in vitro. I. Spatiotemporal patterns of motor and medullary neuron activity, J Neurophysiol 64 (4) (1990) 1149-69), using a glass suction electrode. […] The rectification and integration was used for quantification of the activities of phrenic motoneurons because the spontaneous bursts detected in voltage signals are consisting of multiple positive and negative voltages from baseline (T. Sugita, et al.). […] Bursts were then automatically detected, and burst frequency was measured.
To evaluate the effects of vehicle (0.1% DMSO) on neuronal activities, after 5 min of stabilization, the neuronal activities under basal condition were recorded for 2-20 min, followed by recording with vehicle (0.1% DMSO) for 30-40 min. […] As vehicle (0.1% DMSO) had no significant effects on burst frequency of phrenic neurons, potential of drugs was assessed under vehicle (0.1% DMSO). […]

hypoglossal motoneurons = assay: Electrophysiologic recording of hypoglossal motoneurons in rat medullary slices; conditions: whole cell patch clamp, versus vehicle control, FIG. 3
From the text: as §1, §2

CC(C)(O)C(=O)N1CC(F)(F)[C@H](NS(C)(=O)=O)[C@@H]1Cc1cccc(-c2cc(F)cc(F)c2)c1F [Compound C, N-{(2S,3R)-4,4-difluoro-1-(2-hydroxy-2-methylpropanoyl)-2-[(2,3′,5′-trifluoro[1,1′-biphenyl]-3-yl)methyl]pyrrolidin-3-yl}methanesulfonamide]
increased burst frequency: burst frequency in neurons in the pre-Bötzinger complex [1] | burst frequency of phrenic motoneurons (phrenic motoneurons) | burst frequency of hypoglossal motoneurons (hypoglossal motoneurons)

COC(=O)N1CCC[C@H](NS(C)(=O)=O)[C@@H]1CO[C@H]1CC[C@@H](c2ccccc2)CC1 (relative stereo) [Compound A, methyl(2R,3S)-3-((methylsulfonyl)amino)-2-(((cis-4-phenylcyclohexyl)oxy)methyl) piperidine-1-carboxylate]
increased burst frequency: burst frequency in neurons in the pre-Bötzinger complex [1] | burst frequency of phrenic motoneurons (phrenic motoneurons) | burst frequency of hypoglossal motoneurons (hypoglossal motoneurons)
